Assay results taken from patent US20060269504A1, “Use of alkyl resorcinols in the treatment of acne” (priority 2003, published 2006).
Converted amounts (≈) assume the structure as drawn. “Also recorded” adds a separate entry of the source. Where two headings read alike, the source gives them in different places.

How the values were obtained:
[1] = test system: P. acnes G63 and P. avidum NCTC 11864; assay: In vitro propionibacterial model: glucose biotransformation to propionic acid (GC) and culture viability (TVC); type: cell-based; conditions: for BIC50 MoA(s), mode(s) of action at BIC50 levels: P. acnes G63 and P. avidum NCTC 11864, by reference to culture viability data; for BIC50, mean concentration at 50% inhibition of glucose biotransformation to propionic acid: mean of P. acnes G63 and P. avidum NCTC 11864, anaerobic, 35° C.; for BIC50, mean concentration at 50% inhibition of glucose biotransformation to propionic acid / MBC, range of minimum bactericidal levels: 24 h; for MBC, range of minimum bactericidal levels: range for P. acnes G63 and P. avidum NCTC 11864, minimum level effecting >3 log10 reduction in viability
Protocol: (§1) The propionibacterial model involved the use of 7 ml glass vials, to which were added 6.0 ml synthetic medium (see below), supplemented with glucose substrate (2.0 mg/ml). The corynebacterial model involved the use of 250 ml baffled shake flasks, to which were added 30.0 ml synthetic medium (see below), supplemented with fatty acid substrate (2.0 mg/ml pentadecanoic acid). To each vial or flask (other than controls) was also added one of the indicated test materials, from a 1.0-10.0% (w/v) stock solution in 50% (v/v) ethanol. Each assay was inoculated with fresh bacterial biomass (Propionibacterium acnes G63 [skin isolate], P. avidum NCTC 11864 or Corynebacterium sp. NCIMB 40928), pre-grown for 24-48 h, under aerobic (corynebacteria) or anaerobic (propionibacteria) conditions, in TSBT (see below), to give starting optical densities (A590) of ˜1.0. Following inoculation, the vials and flasks were incubated aerobically (corynebacteria) or anaerobically (propionibacteria) at 35° C., with agitation (120 rpm), for 24 h. After this time, culture viability was determined by total viable count (TVC) analysis on ACX plates (see below), following serial dilution in quarter-strength Ringers solution. Also, at the end of each experiment, the extent of glucose or fatty acid biotransformation to propionic acid was measured by capillary gas chromatography (GC) (see below), and the dose response data used to calculate, for each active ingredient, a BIC so value (50% biotransformation inhibition concentration). The mode of action (bacteriostatic or bactericidal) at this level was elucidated by reference to culture viability data, which was also used to determine the MBC (minimum bactericidal concentration), defined as the minimum level of each active effecting a >3 log10 ml^31 1 reduction in viability (Tables 1 & 2). Finally, the data for P. acnes G63 and P. avidum NCTC 11864 were combined to generate mean and range anti-propionibacterial values (Table 1).
(§2) KH2PO4 (1.6); (NH4)2HPO4 (5.0); Na2SO4 (0.38); KNO3 (0.1); NaHCO3 (1.0); sodium thioglycolate (1.0); sodium pyruvate (1.0); yeast nitrogen base (Difco) (3.35); MgCl2.6H2O (0.5).
(§3) Tryptone soya broth (Merck) (30.0); yeast extract (Beta Lab) (10.0); Tween 80™ (5.0).
(§4) blood agar base no. 2 (Oxoid) (39.5); yeast extract (Beta Lab) (3.0); glucose (2.0); Tween 80 ™ (5.0); defibrinated horse blood (50 ml/l).
(§5) 1.0 ml aliquots from each assay vial were transferred into sampling tubes, an internal standard (1.0 mg/ml caproic acid) added to each tube, and the culture medium acidified (pH˜2) by the addition of HCl. Liquid-liquid extraction was then carried out using 2 vol (2 ml) ethyl acetate, with organic and aqueous phases being resolved by centrifugation (2000 rpm, 2 min). ˜0.75 ml of each organic (upper) phase was then transferred to a fresh sampling tube prior to analysis on a Perkin Elmer 8000 (Series 2) GC fitted with a 15 m×0.32 mm (internal diameter) FFAP fused silica capillary column (film thickness 0.25 μm) (Quadrex). Metabolite levels were quantified by comparison of peak areas with known amounts of both internal (caproic acid) and externally-run (propionic acid) standards. GC running conditions as indicated: injector (split/splitless), 300° C.; detector (flame ionisation), 300° C.; oven, 80° C. (2 min), 80-155° C. (7.5° C./min), 155° C. (1 min); injection volume, 1.0 μl.

[2] = test system: Corynebacterium sp. NCIMB 40928; assay: In vitro corynebacterial model: pentadecanoic acid biotransformation to propionic acid (GC) and culture viability (TVC); type: cell-based; conditions: for BIC50, concentration at 50% inhibition of pentadecanoic acid biotransformation to propionic acid: aerobic, 35° C.; for BIC50 MoA(s), mode of action at BIC50 level: by reference to culture viability data; for MBC: read-out: MBC, minimum bactericidal levels
Protocol: as §1, §2, §3, §4, §5

[3] = Corynebacterium sp. NCIMB 40928, 24 h
[4] = Corynebacterium sp. NCIMB 40928

SMILES | BIC50 MoA(s), mode(s) of action at BIC50 levels [1] | selectivity for Propionibacterium spp. compared to other bacteria normally present on the skin ([1]; comparison of Tables 1 and 2, versus Triclosan) | BIC50, mean concentration at 50% inhibition of glucose biotransformation to propionic acid [1] [ppm] | MBC, range of minimum bactericidal levels [1] | anti-propionibacterial properties compared with Triclosan ([1]; summary of Table 1) | BIC50, concentration at 50% inhibition of pentadecanoic acid biotransformation to propionic acid [2, 3] [ppm] | BIC50 MoA(s), mode of action at BIC50 level [2, 4] | MBC ([2]; NCIMB40928, Corynebacterium sp. NCIMB 40928, minimum level effecting >3 log10 reduction in viability, 24 h) [µg/mL] | MBC ([2]; Corynebacterium, NCIMB40928, 24 h) [µg/mL]
CCCCCCc1ccc(O)cc1O [4-Hexylresorcinol, 4-hexylresorcinol] | Bacteriostatic/; also recorded: Bactericidal | far greater selectivity than Triclosan | 42 | 50-100 ppm | as good as those of Triclosan | 118 | Bacteriostatic | > 500 | 
Oc1cc(Cl)ccc1Oc1ccc(Cl)cc1Cl [Triclosan, 2,4,4′-trichloro-2′-hydroxydiphenyl ether, reference compound] | Bactericidal; also recorded: Bacteriostatic/ |  | 39 | 50-100 ppm |  | 20 | Bacteriostatic |  | 50 (≈ 173 µM)
